In patent publication US20090018175A1, “Pharmaceutical excipient complex” (priority 2007, published 2009):
Where two headings read alike, the source gives them in different places.

How the values were obtained:
[1] = Stability of the tablet produced according to Example 5 (impurity content on storage); type: physicochemical; settings: tablet of Example 5, four days at 70° C., 100 percent relative humidity
Description: As used herein, the term “stable” with reference to candesartan cilexetil relates to candesartan cilexetil having about 0.01% to about 0.5% of desethyl-candesartan (“desethyl-CNS”) impurity present in the total weight of the composition, after storage for four days at a temperature of 65° C. and a relative humidity of 100 percent; and/or having about 0.01% to about 0.5% of 2-N-ethyl candesartan (“2-N-ethyl CNS”) impurity present in the total weight of the composition, after storage for four days at a temperature of 65° C. and a relative humidity of 100 percent; and/or having about 0.01% to about 0.2% of impurities other than desethyl-CNS and 2-N-ethyl CNS present in the total weight of the composition, after storage for four days at a temperature of 65° C. and a relative humidity of 100 percent.

[2] = cited from earlier work

For `CCOc1nc2cccc(C(=O)OC(C)OC(=O)OC3CCCCC3)c2n1Cc1ccc(-c2ccccc2-c2nnn[nH]2)cc1` (racemic) [candesartan cilexetil, (±)-1-[[(cyclohexyloxy)carbonyl]oxy]ethyl-2-ethoxy-1-[[2′-(1H-tetrazol-5-yl)[1,1′biphenyl]-4-yl]methyl]-1H-benzimidazole-7-carboxylate], the “degradation of candesartan cilexetil when tabletted with the excipient complex (conclusion)” value [1] is listed as “did not degrade significantly”, the solubility ([2]; in methanol) is listed as “sparingly soluble” and the solubility ([2]; in water) is listed as “sparingly soluble”.
